Experimental data taken from ChEMBL document CHEMBL1201862, “PubChem BioAssay data set” (2004).
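Step 1: Grow cells in 96-well plates. Step 2: Expose to compound for 48 hours at 5 concentrations. Step 3: Interpolate endpoints linearly; if unreached, use highest concentration. GI50 is the concentration that inhibits growth by half.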 Activity calls are given as the source filed them. Rule as the data show it: active = GI50 up to about 1.1 µM and inactive = higher.

Columns and labels:
Assay in all cases: NCI-60 cell line screen, 48 h
HOP-62 = tested on: HOP-62
HCT-116 = tested on: HCT-116
LOX IMVI = tested on: LOX IMVI
OVCAR-8 = tested on: OVCAR-8
RPMI-8226 = tested on: RPMI-8226
U-251 = tested on: U-251
DU-145 = tested on: DU-145
COLO 205 = tested on: COLO 205
NCI-H23 = tested on: NCI-H23
M14 = tested on: M14
SK-MEL-5 = tested on: SK-MEL-5
NCI-H460 = tested on: NCI-H460
Hs-578T = tested on: Hs-578T
BT-549 = tested on: BT-549
RXF 393 = tested on: RXF 393
NCI-H522 = tested on: NCI-H522
MCF7 = tested on: MCF7
HCC 2998 = tested on: HCC 2998
UACC-62 = tested on: UACC-62
K562 = tested on: K562

| Structure (SMILES) | GI50 (HOP-62) | GI50 (HCT-116) | GI50 (LOX IMVI) | GI50 (OVCAR-8) | GI50 (RPMI-8226) | GI50 (U-251) | GI50 (DU-145) | GI50 (COLO 205) | GI50 (NCI-H23) | GI50 (M14) | GI50 (SK-MEL-5) | GI50 (NCI-H460) | GI50 (Hs-578T) | GI50 (BT-549) | GI50 (RXF 393) | GI50 (NCI-H522) | GI50 (MCF7) | GI50 (HCC 2998) | GI50 (UACC-62) | GI50 (K562) |
| --- | --- | --- | --- | --- | --- | --- | --- | --- | --- | --- | --- | --- | --- | --- | --- | --- | --- | --- | --- | --- |
| COC1CC(OC2CCC3(C)C(CCC45CCC(C6=CC(=O)OC6)C(C)(CCC43)C5=O)C2)OC(C)C1O (stereo not given) | 27 µM (inactive) | 35.1 µM (inactive) | 38.4 µM (inactive) | 55.8 µM (inactive) | > 10 µM (inactive) | 46.2 µM (inactive) | 15.9 µM (inactive) | 40.5 µM (inactive) | 22.5 µM (inactive) | > 100 µM (inactive) | 18.1 µM (inactive) | 18 µM (inactive) | 28.2 µM (inactive) | 20.8 µM (inactive) | 24 µM (inactive) | 27.9 µM (inactive) | 50.7 µM (inactive) | 13.1 µM (inactive) | > 100 µM (inactive) | 59.8 µM (inactive) |
| O=C1CSC(c2cccs2)N1c1nc2cc3sc(N4C(=O)CSC4c4cccs4)nc3cc2s1 (stereo not given) | > 50 µM (inactive) | 38.4 µM (inactive) | 29.5 µM (inactive) | > 50 µM (inactive) | > 50 µM (inactive) | 40.9 µM (inactive) | > 50 µM (inactive) | 1.21 µM (inactive) | 28.8 µM (inactive) | > 50 µM (inactive) | 22.5 µM (inactive) | 3.04 µM (inactive) | > 50 µM (inactive) | > 50 µM (inactive) | > 50 µM (inactive) | 13.2 µM (inactive) | 15.9 µM (inactive) | > 50 µM (inactive) | > 50 µM (inactive) | 34.5 µM (inactive) |
| O=C(Nc1cccc(-c2cn3ccccc3n2)c1)c1ccncc1 | 33.2 µM (inactive) | 33.1 µM (inactive) | 38.3 µM (inactive) | 34 µM (inactive) | 17.1 µM (inactive) | 48.2 µM (inactive) | 49.4 µM (inactive) | 31.3 µM (inactive) | 23.6 µM (inactive) | 33.7 µM (inactive) | 24.3 µM (inactive) | 16.1 µM (inactive) | 38.1 µM (inactive) | 21.7 µM (inactive) | 64.4 µM (inactive) | 23.6 µM (inactive) | 31.6 µM (inactive) | 56.2 µM (inactive) | 20.9 µM (inactive) | 24.6 µM (inactive) |
| O=c1nc(N2CCNCC2)oc2cc(Cl)oc(=O)c12 | 4.69 µM (inactive) | 2.43 µM (inactive) | 2.06 µM (inactive) | 2 µM (inactive) | 1.67 µM (inactive) | 3.91 µM (inactive) | 5.5 µM (inactive) | 2.9 µM (inactive) | 7.24 µM (inactive) | 2.45 µM (inactive) | 3.14 µM (inactive) | 6.98 µM (inactive) | 1.94 µM (inactive) | 0.716 µM (active) | 9.1 µM (inactive) | 1.7 µM (inactive) | 3.98 µM (inactive) | 11.1 µM (inactive) | 7.67 µM (inactive) | 2.55 µM (inactive) |
| CCCCCCc1cc2cc(C(=O)Nc3cccc(C(F)(F)F)c3)c(=N)oc2cc1O | 1.9 µM (inactive) | 1.55 µM (inactive) | 1.26 µM (inactive) | 1.26 µM (inactive) | 0.524 µM (active) | 1.33 µM (inactive) | 1.37 µM (inactive) | 6.64 µM (inactive) | 0.185 µM (active) | 2.29 µM (inactive) | 1.13 µM (inactive) | 0.436 µM (active) | 0.998 µM (active) | 1.66 µM (inactive) | 0.49 µM (active) | 0.351 µM (active) | 1.62 µM (inactive) | 2.74 µM (inactive) | 1.53 µM (inactive) | 0.543 µM (active) |
| CCCCCCCCCCCCCC(=O)OC(/C=C/C(C)C)C(O)C(O)C(OC)C(=O)NC1CCCCN(C)C1=O (stereo not given) | 3.15 µM (inactive) | 0.927 µM (active) | 7.23 µM (inactive) | 5.28 µM (inactive) | 2.07 µM (inactive) | 6.5 µM (inactive) | > 10 µM (inactive) | 1.85 µM (inactive) | 9.91 µM (inactive) | 1.56 µM (inactive) | 3.19 µM (inactive) | 0.687 µM (active) | > 10 µM (inactive) | > 10 µM (inactive) | 1.45 µM (inactive) | 8.73 µM (inactive) | 1.93 µM (inactive) | 7.96 µM (inactive) | 3.21 µM (inactive) | 2.59 µM (inactive) |
| Cc1ccccc1OC(C)C(=O)NN1C(=O)CC(=O)NC1=S (stereo not given) | > 100 µM (inactive) | > 100 µM (inactive) | > 100 µM (inactive) | > 100 µM (inactive) | > 100 µM (inactive) | > 100 µM (inactive) | > 100 µM (inactive) | > 100 µM (inactive) | > 100 µM (inactive) | > 100 µM (inactive) | > 100 µM (inactive) | > 100 µM (inactive) | > 100 µM (inactive) | > 100 µM (inactive) | > 100 µM (inactive) | > 100 µM (inactive) | 47.4 µM (inactive) | > 100 µM (inactive) | 80.5 µM (inactive) | > 100 µM (inactive) |
